Data set [1] concerns Hypoaspis aculeifer. The following applies: chronic/long-term.
The subject of data set [2] is Tagia sp.
For data set [3], the system named is Daphnia magna. The settings on record: chronic/long-term; duration: 21 days; reproduction.
The test system of data set [4] is Rattus norvegicus.
For data set [5], the system named is Folsomia candida. The following applies: chronic/long-term.
The subject of data set [6] is Pimephales promelas.
In data set [7] the test system is Colinus virginianus.
Data set [8] concerns Apis mellifera. The settings on record: acute, mortality.
Data set [9] has as its system Typhlodromus pyri. Description: LR50; higher = less toxic. The settings on record: not reported; mortality.

The values below come from EPA's ToxValDB 9.5 (doi:10.2903/j.efsa.2014.3812).

The structures appear in SMILES notation. Values after ≈ are worked out from the molar mass of the structure shown.

Consider `O=C(O)COc1ccc(Cl)cc1Cl` [2,4-Dichlorophenoxyacetic acid], for which the NOEC in data set [1] stood at 5 mg/kg; in data set [2] (chronic/long-term, duration: 8 weeks), 62.5 mg/kg; in data set [3], 38.4 mg/L; in [5] it was 1.25 mg/kg; in data set [6] (chronic/long-term, duration: 32 days, growth), 63.4 mg/L. Besides, the LC50 in [2] (acute, duration: 14 days, mortality) came to 350 mg/kg; in data set [6] (acute, duration: 96 hours, mortality) it was 100 µg/mL (≈ 452 µM). Besides, the LD50 was 486 mg/kg-day in data set [4] (acute); 500 mg/kg-day in data set [7] (acute, oral); more than 100 µg/piece in [8] (dermal); 94 µg/piece in data set [8] (oral, unspecified). Also, the NOAEL (as a rule, the highest dose or exposure tested at which no adverse effect was seen) in data set [4] (acute, clinical signs) stood at 75 mg/kg-day; in [4] (chronic), 20.6 mg/kg-day; in data set [4] (chronic, duration: 2 years, organ weight) it was 5 mg/kg-day; in data set [4] (subchronic, duration: 90 days, oral, histopathology: nonneoplastic), 15 mg/kg-day; in [7] (reproduction developmental), 100 mg/kg-day. The same compound showed an LR50 in data set [9] of more than 3000 g/ha.
